Measured values: PubChem BioAssay AID1671243

Target: Casein kinase I isoform alpha (Homo sapiens) (UniProt P48729)
Experiment: inhibition of CK1 alpha activity – biochemical, Z'-LYTE, FRET, direct format, dose response (AID 1671243)
Settings: Z'-LYTE FRET kinase activity assay

Sequence of Casein kinase I isoform alpha (Homo sapiens) (P48729 whole entry, looked up, canonical isoform): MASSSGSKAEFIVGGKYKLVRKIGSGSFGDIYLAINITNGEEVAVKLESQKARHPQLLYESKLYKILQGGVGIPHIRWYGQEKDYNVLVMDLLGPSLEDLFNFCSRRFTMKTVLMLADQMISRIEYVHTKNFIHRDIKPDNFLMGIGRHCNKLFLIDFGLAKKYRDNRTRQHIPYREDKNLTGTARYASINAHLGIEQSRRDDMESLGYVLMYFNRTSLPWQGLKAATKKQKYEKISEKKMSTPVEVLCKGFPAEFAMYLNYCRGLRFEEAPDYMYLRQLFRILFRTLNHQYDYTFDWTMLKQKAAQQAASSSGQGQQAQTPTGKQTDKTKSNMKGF

Question: `Brc1c(Br)c(Br)c2n[nH]nc2c1Br` was tested. Which IC50 did it give?
Answer: 17.6 µM
